# Reference: article PMC9437101, “Curcumin-based-fluorescent probes targeting ALDH1A3 as a promising tool for glioblastoma precision surgery and early diagnosis” (Communications Biology, 2022)
# “And” between values parts separate entries of the source, which are not always exact repeats. Equal values may be shown once.
# Tests used:
# [1] = tested on: patient-derived glioma cell 3054; test: Fluorescent microscopy of probe in cells; assay type: cell-based, human; conditions: 10 µM
# [2] = LC-HRMS analysis, enzymatic assay buffer + probe without enzyme; conditions: 1 h
# Procedure: These analyses were carried out by using UPLC-HRMS procedure with Vanquish UPLC system coupled to a Thermo Scientific Q-Exactive Plus, operating in negative electrospray ionization mode. The chromatographic separation was carried out using a Phenomenex Synergi 4 µ Polar-RP 80 A (150 × 2 mm) equipped with a Phenomenex Polar-RP (4 mm × 2 mm) security guard column. The mobile phase consisted of A: acetonitrile 0.1% formic acid and B: 0.1% formic acid. We used a linear elution gradient, starting from 80% of A to 5% A in 3 min, 3 min at 5% A, an equilibration of 4 min for a total run time of 10.00 min, at 300 µl/min flow rate. The autosampler temperature was set at 15 °C, the injection volume was 5 µl and column was maintained at 40 °C. […] Before injecting the samples, the blanks in the list were analyzed and every biological sample was analyzed in duplicate. The biological samples analyzed were as follow: (1) Enzymatic assay Buffer; (2) Enzymatic assay Buffer + NAD^+; (3) Enzymatic assay Buffer + Probe 10 or Probe 11; (4) Enzymatic assay Buffer + ALDH1A1; (5) Enzymatic assay Buffer + ALDH1A2; (6) Enzymatic assay Buffer + ALDH1A3; (7) Enzymatic assay Buffer + ALDH1A1 + Probe 10 or Probe 11; (8) Enzymatic assay Buffer + ALDH1A2 + Probe 10 or Probe 11; (9) Enzymatic assay Buffer + ALDH1A3 + Probe 10 or Probe 11. […]
# [3] = tested on: patient-derived glioma cells 3054; test: Cell viability (MTT assay); assay type: cell-based, human; conditions: 3054; 10uM, 72 h
# Procedure: (§1) In total, 10 × 10^5 U87MG human glioblastoma, patient-derived glioma cells 3054 and 3060, HEK293T human embryonic kidney, 4T1 murine mammary carcinoma, human fetal astrocytes cell lines were plated in their respective medium and treated for 72 h with our fluorescent probe 10 and 11, solubilized in DMSO in a final concentration of […]. We treated controls with DMSO in the same final concentration and we compared the viability of each treatment to controls. The viability of cells was measured using the 3-(4,5-dimethylthiazol-2-yl)-2,5-diphenyltetrazolium assay (MTT assay)[23].
# [4] = tested on: patient-derived glioma cells 3060; test: Cell viability (MTT assay); assay type: cell-based, human; conditions: 3060; 10uM, 72 h
# Procedure: as §1
# U87MG human glioblastoma = test: Cell viability (MTT assay); assay type: cell-based; conditions: 10uM, 72 h
# Procedure: as §1
# [5] = Cell viability (MTT assay); assay type: cell-based, human; conditions: human
# Procedure: as §1
# human fetal astrocytes = test: Cell viability (MTT assay); assay type: cell-based; conditions: hASTRO; 10uM, 72 h
# Procedure: as §1
# [6] = tested on: HEK293T human embryonic kidney; test: Cell viability (MTT assay); assay type: cell-based; conditions: 10uM, 72 h
# Procedure: as §1
# [7] = tested on: 4T1 murine mammary carcinoma; test: Cell viability (MTT assay); assay type: cell-based; conditions: 10uM, 72 h
# Procedure: as §1
# [8] = Cell viability (MTT assay); assay type: cell-based, murine; conditions: mouse, 4T1 mammary carcinoma cells
# Procedure: as §1
# [9] = tested on: U87MG, 3054, 3060, HEK293T, 4T1, human fetal astrocytes; test: Cell viability (MTT assay), all cell lines of Fig. 6a; assay type: cell-based; conditions: 10 µM, 72 h
# Procedure: as §1
structure (smiles),measurement,setting,value
COc1cc(/C=C/C(O)=C/C(=O)/C=C/c2ccc(OCc3cn(CCOc4ccc(C=O)cc4)nn3)c(OC)c2)ccc1O [Probe 10],fluorescence in cells,[1]; 2 h,can determine fluorescence
same,If ROI,"[1]; 3054, 2 h (Fig. 5g)",223.52 a.u. and 222.87 a.u. and 254.268 a.u. and 245.65 a.u. and 230.548 a.u.
same,AREA TIC of Probe 10,[2],9480149 and 10113371 and 16727419 and 14473716
same,% cell viability,[3],92.2458% and 92.6485% and 92.3652% and 91.8745% and 92.3458% and 92.5485% and 92.2652%
same,% cell viability,[4],90.8745% and 90.3258% and 91.3365% and 91.3478% and 90.9745% and 90.4258% and 91.2365%
same,% cell viability,U87MG human glioblastoma,87.4968% and 85.4873% and 86.3577% and 86.8785% and 87.5968% and 85.3873% and 86.4577%
same,"viability at 72 h, 10 µM",[5]; HEK293T embryonic kidney cells,96.8%
same,"viability at 72 h, 10 µM",[5]; U87MG glioblastoma cells,86.8%
same,"viability at 72 h, 10 µM","[5]; human fetal astrocytes, hASTRO",85.3%
same,"viability at 72 h, 10 µM","[5]; patient-derived glioma cells 3054, 3054",91.4%
same,"viability at 72 h, 10 µM","[5]; patient-derived glioma cells 3060, 3060",91.2%
same,% cell viability,human fetal astrocytes,80.9182% and 84.1614% and 88.5188% and 85.4535% and 80.8182% and 84.0614% and 88.4188%
same,% cell viability,[6],84.6125% and 86.4467% and 91.2307% and 96.8963% and 84.5125% and 86.3467% and 91.1307%
same,% cell viability,[7],86.9788% and 85.5694% and 83.5736% and 83.6921% and 86.8788% and 85.6693% and 83.8736%
same,"viability at 72 h, 10 µM",[8],83.6%
same,cell mortality,[9],unable to induce cell mortality
